Assay results: patent US20250114387A1, “PHARMACEUTICAL COMPOSITION COMPRISING ENAVOGLIFLOZIN FOR PREVENTING OR TREATING OBESITY IN CANINE ANIMALS” (DAEWOONG PHARMACEUTICAL CO., LTD., priority 2022, published 2025)

Key:
obese dogs [1] = assay: Clinical trial in obese dogs: BCS, body weight, chest and waist circumference, resting energy requirement, fat thickness, body fat; type: in vivo
From the text: Adult dogs which were naturally obese but otherwise healthy were selected regardless of breed, sex, and altered status, and informed consent was obtained from the dog owners for participation in the clinical trial.
As a result of physical examination of all dogs (including body weight and BCS (a total of 9 levels), FIG. 1 and Table 1), those diagnosed as obese were selected. The BCS used to select dogs is classified into a total of 9 levels, and dogs with a BCS of level 6 or higher were selected, and detailed criteria are presented in Table 1 and FIG. 1.
(§1) A total of 20 dogs were selected and divided into 4 groups with 5 dogs in each group: a normal obese control (OC); hereinafter, referred to as a control (OC)), an enavogliflozin 0.2-administered group, an enavogliflozin 0.5-administered group, and an enavogliflozin 1-administered group. The control was fed regular feed, and the enavogliflozin-administered groups were fed regular feed supplemented with enavogliflozin at doses of 0.2, 0.5, or 1 mg/kg, respectively. The feed was supplemented with enavogliflozin once a day for 8 weeks and given orally.
Body weights (BW), chest circumferences, and waist circumferences were measured immediately before the first intake of enavogliflozin-supplemented feed, and once every two weeks for the next 10 weeks. The chest circumferences and waist circumferences were measured four times each at the thickest part of the chest and the thinnest part between the chest and hind legs, and an average size was calculated. Resting energy requirement (RER) was calculated using Equation 1 in the reference document (Brooks et al., Journal of the American Animal Hospital Association 50, 1-11. (2014)).
Fat thicknesses were evaluated by measuring the perpendicular distance from the T10 spinal process to the skin by radiography (Titan 2000 X-ray system, COMED Medical Systems Co., Ltd., Seoul, Korea) on the first day of enavogliflozin administration, and on weeks 4, 8, and 10 of administration. Body fat was measured with a body fat meter every two weeks for a total of 10 weeks after the start of enavogliflozin administration.

obese dogs [2] = assay: Clinical trial in obese dogs: serum insulin concentration (ELISA); type: in vivo; details: for Insulin: serum
Protocol: as §1
Serum insulin concentrations were measured 2, 4, 6, 8, and 10 weeks after the start of enavogliflozin administration using a Quantikine Canine Insulin ELISA kit (Catalog no. DINS00, R&D Systems, Minneapolis, MN, USA) according to the manufacturer's protocol. Urine biochemical parameters were evaluated using urine test strips 2, 4, 6, and 10 weeks after the start of enavogliflozin administration, and urinary glucose (GLU) excretion was measured using UriSCAN® Strip (YD Diagnostics Corp., Yong-in, Korea).

[3] = 0.2 mg/kg once a day oral for 8 weeks, week 0
[4] = 0.2 mg/kg once a day oral for 8 weeks, week 2
[5] = 0.2 mg/kg once a day oral for 8 weeks, week 4
[6] = 0.2 mg/kg once a day oral for 8 weeks, week 6
[7] = 0.2 mg/kg once a day oral for 8 weeks, week 8
[8] = 0.2 mg/kg once a day oral for 8 weeks, week 10
[9] = 0.5 mg/kg once a day oral for 8 weeks, week 0
[10] = 0.5 mg/kg once a day oral for 8 weeks, week 2
[11] = 0.5 mg/kg once a day oral for 8 weeks, week 4
[12] = 0.5 mg/kg once a day oral for 8 weeks, week 6
[13] = 0.5 mg/kg once a day oral for 8 weeks, week 8
[14] = 0.5 mg/kg once a day oral for 8 weeks, week 10
[15] = 1 mg/kg once a day oral for 8 weeks, week 0
[16] = 1 mg/kg once a day oral for 8 weeks, week 2
[17] = 1 mg/kg once a day oral for 8 weeks, week 4
[18] = 1 mg/kg once a day oral for 8 weeks, week 6
[19] = 1 mg/kg once a day oral for 8 weeks, week 8
[20] = 1 mg/kg once a day oral for 8 weeks, week 10
[21] = all enavogliflozin-administered groups

`OC[C@H]1O[C@@H](c2cc(Cc3ccc(C4CC4)cc3)c(Cl)c3c2CCO3)[C@H](O)[C@@H](O)[C@@H]1O` [Enavogliflozin, enavogliflozin] was tested. Which “body fat percentage, rank among groups” value (obese dogs [1]; 0.2 mg/kg) did it give?
Its value is “lowest”.

What about the “Change rates of chest circumference” value (obese dogs [1]; [3]) of the same compound?
The value was 100.00 ± 0.00%.

And the “Change rates of resting energy requirement” value (obese dogs [1]; [3])?
Its value is 100.00 ± 0.00%.

What about the “Change rates of waist circumference” value (obese dogs [1]; [3]) of the same compound?
Its value is 100.00 ± 0.00%.

And the “Change rates of chest circumference” value (obese dogs [1]; [4])?
The value was 99.20 ± 3.44%.

What about the “Change rates of resting energy requirement” value (obese dogs [1]; [4]) of the same compound?
The value was 96.98 ± 2.69%.

What about the “Change rates of waist circumference” value (obese dogs [1]; [4]) of the same compound?
Its value is 100.53 ± 4.71%.

And the “Change rates of chest circumference” value (obese dogs [1]; [5])?
The value was 97.16 ± 2.74%.

And the “Change rates of resting energy requirement” value (obese dogs [1]; [5])?
The value was 93.41 ± 5.79%.

And the “Change rates of waist circumference” value (obese dogs [1]; [5])?
Its value is 97.39 ± 12.15%.

What about the “Change rates of chest circumference” value (obese dogs [1]; [6]) of the same compound?
The value was 95.08 ± 3.96%.

What about the “Change rates of resting energy requirement” value (obese dogs [1]; [6]) of the same compound?
Its value is 95.21 ± 4.10%.

And the “Change rates of waist circumference” value (obese dogs [1]; [6])?
The value was 98.96 ± 15.47%.

What about the “Change rates of chest circumference” value (obese dogs [1]; [7]) of the same compound?
Its value is 96.08 ± 2.60%.

And the “Change rates of resting energy requirement” value (obese dogs [1]; [7])?
Its value is 94.64 ± 3.59 %.

What about the “Change rates of waist circumference” value (obese dogs [1]; [7]) of the same compound?
The value was 98.89 ± 11.98%.

What about the “Change rates of chest circumference” value (obese dogs [1]; [8]) of the same compound?
Its value is 99.18 ± 3.01%.

And the “Change rates of resting energy requirement” value (obese dogs [1]; [8])?
The value was 96.15 ± 4.75%.

What about the “Change rates of waist circumference” value (obese dogs [1]; [8]) of the same compound?
Its value is 101.98 ± 10.78%.

What about the “BCS compared to the control (OC)” value (obese dogs [1]; 0.2 mg/kg, at 4, 8, and 10 weeks after the start of administration, p<0.05) of the same compound?
Its value is “significantly lower than the control (OC)”.

What about the “resting energy requirement (RER) compared to the control (OC)” value (obese dogs [1]; 0.2 mg/kg, at 4 weeks and 8 weeks after the start of administration, p<0.05) of the same compound?
Its value is “significantly lower”.

What about the “body weight compared to the control (OC)” value (obese dogs [1]; 0.2 mg/kg, from 4 weeks after the start of administration, p<0.05) of the same compound?
The value was “significantly lower than the control (OC)”.

And the “fat thickness change, significance” value (obese dogs [1]; 0.2 mg/kg, week 8 and week 10)?
The value was “significant at week 8 and week 10”.

And the body weight (obese dogs [1]; 0.5 mg/kg)?
The body weight was “decreasing at week 2 and week 4 of the trial and then slowly increasing”.

And the “Change rates of chest circumference” value (obese dogs [1]; [9])?
The value was 100.00 ± 0.00%.

What about the “Change rates of resting energy requirement” value (obese dogs [1]; [9]) of the same compound?
Its value is 100.00 ± 0.00%.

And the “Change rates of waist circumference” value (obese dogs [1]; [9])?
The value was 100.00 ± 0.00%.

What about the “Change rates of chest circumference” value (obese dogs [1]; [10]) of the same compound?
The value was 98.19 ± 4.31%.

What about the “Change rates of resting energy requirement” value (obese dogs [1]; [10]) of the same compound?
The value was 98.63 ± 0.72%.

What about the “Change rates of waist circumference” value (obese dogs [1]; [10]) of the same compound?
Its value is 99.57 ± 1.71%.

What about the “Change rates of chest circumference” value (obese dogs [1]; [11]) of the same compound?
Its value is 97.16 ± 3.23%.

And the “Change rates of resting energy requirement” value (obese dogs [1]; [11])?
Its value is 97.93 ± 1.00%.

And the “Change rates of waist circumference” value (obese dogs [1]; [11])?
The value was 98.45 ± 4.94%.

What about the “Change rates of chest circumference” value (obese dogs [1]; [12]) of the same compound?
The value was 95.60 ± 4.55%.

And the “Change rates of resting energy requirement” value (obese dogs [1]; [12])?
Its value is 97.54 ± 2.73%.

What about the “Change rates of waist circumference” value (obese dogs [1]; [12]) of the same compound?
The value was 96.30 ± 3.83%.

And the “Change rates of chest circumference” value (obese dogs [1]; [13])?
Its value is 93.90 ± 3.11%.

And the “Change rates of resting energy requirement” value (obese dogs [1]; [13])?
Its value is 96.92 ± 2.00%.

And the “Change rates of waist circumference” value (obese dogs [1]; [13])?
The value was 93.84 ± 5.54%.

What about the “Change rates of chest circumference” value (obese dogs [1]; [14]) of the same compound?
The value was 96.43 ± 2.76%.

And the “Change rates of resting energy requirement” value (obese dogs [1]; [14])?
The value was 98.79 ± 2.30%.

And the “Change rates of waist circumference” value (obese dogs [1]; [14])?
Its value is 96.00 ± 4.72%.

And the BCS (obese dogs [1]; 0.5 mg/kg, entire experimental period)?
Its BCS is “decreased during the entire experimental period”.

And the “Change rates of chest circumference” value (obese dogs [1]; [15])?
The value was 100.00 ± 0.00%.

And the “Change rates of resting energy requirement” value (obese dogs [1]; [15])?
The value was 100.00 ± 0.00%.

What about the “Change rates of waist circumference” value (obese dogs [1]; [15]) of the same compound?
The value was 100.00 ± 0.00%.

And the “Change rates of chest circumference” value (obese dogs [1]; [16])?
The value was 94.79 ± 6.67%.

And the “Change rates of resting energy requirement” value (obese dogs [1]; [16])?
The value was 97.75 ± 2.32%.

What about the “Change rates of waist circumference” value (obese dogs [1]; [16]) of the same compound?
Its value is 95.97 ± 11.67%.

And the “Change rates of chest circumference” value (obese dogs [1]; [17])?
The value was 99.81 ± 2.43%.

What about the “Change rates of resting energy requirement” value (obese dogs [1]; [17]) of the same compound?
Its value is 98.11 ± 2.18%.

What about the “Change rates of waist circumference” value (obese dogs [1]; [17]) of the same compound?
Its value is 99.18 ± 8.09%.

What about the “Change rates of chest circumference” value (obese dogs [1]; [18]) of the same compound?
Its value is 100.54 ± 4.98%.

And the “Change rates of resting energy requirement” value (obese dogs [1]; [18])?
Its value is 98.95 ± 2.07%.

What about the “Change rates of waist circumference” value (obese dogs [1]; [18]) of the same compound?
Its value is 103.75 ± 10.54%.

What about the “Change rates of chest circumference” value (obese dogs [1]; [19]) of the same compound?
The value was 99.20 ± 4.49%.

And the “Change rates of resting energy requirement” value (obese dogs [1]; [19])?
The value was 99.19 ± 4.05%.

And the “Change rates of waist circumference” value (obese dogs [1]; [19])?
Its value is 99.76 ± 12.53%.

And the “Change rates of chest circumference” value (obese dogs [1]; [20])?
Its value is 100.24 ± 5.15%.

What about the “Change rates of resting energy requirement” value (obese dogs [1]; [20]) of the same compound?
The value was 99.97 ± 6.15%.

And the “Change rates of waist circumference” value (obese dogs [1]; [20])?
Its value is 101.33 ± 14.44%.

What about the “BCS compared to the control (OC)” value (obese dogs [1]; 1 mg/kg, at the end of the experiment) of the same compound?
Its value is “lower than the control (OC) at the end of the experiment”.

What about the “BCS compared to the control (OC)” value (obese dogs [1]; 1 mg/kg, during the experiment) of the same compound?
Its value is “slightly increased compared to the control (OC)”.

What about the “BCS, body weight, body fat percentage, fat thickness, and chest and waist circumferences” value (obese dogs [1]; 8-week administration) of the same compound?
The value was “reduced”.

What about the fat thickness (obese dogs [1]; all administration groups (0.2, 0.5, 1 mg/kg)) of the same compound?
Its fat thickness is “decreased in all administration groups”.

What about the chest circumference (obese dogs [1]; [21]) of the same compound?
Its chest circumference is “decreased”.

And the waist circumference (obese dogs [1]; [21])?
The waist circumference was “decreased”.

What about the body fat percentage (obese dogs [1]; all groups (0.2, 0.5, 1 mg/kg)) of the same compound?
Its body fat percentage is “no significant differences”.

And the “anti-obesity results, comparison of doses” value (obese dogs [1]; feed supplemented with 0.2 mg/kg)?
Its value is “most effective results”.

And the “insulin concentration compared to the control (OC)” value (obese dogs [2]; 0.5 mg/kg)?
The value was “significantly lower”.

And the “serum insulin concentration compared to the control (OC)” value (obese dogs [2]; all administration groups)?
Its value is “decreased compared to the control (OC)”.

What about the Insulin (obese dogs [2]; 0.2 mg/kg once a day oral for 8 weeks) of the same compound?
Its Insulin is 126.60 ± 15.45 ng/mL.

And the Insulin (obese dogs [2]; 0.5 mg/kg once a day oral for 8 weeks)?
Its Insulin is 99.82 ± 18.48 ng/mL.

And the Insulin (obese dogs [2]; 1 mg/kg once a day oral for 8 weeks)?
The Insulin was 110.75 ± 21.96 ng/mL.
